Data: patent publication US20050009005A1, “Methods of using quantitative lipid metabolome data” (Lipomics Technologies, Inc., priority 2001, published 2005)

System: de novo fatty acid synthesis
Assay: Lipid metabolite profile of plasma, heart, liver and inguinal adipose of CL316,243-treated mice (trial 2; Tables 7 and 8)
Type: in vivo
Details: Liver, mean
From the text: It is understood that the described methods can be used to analyze lipid metabolites from other subjects, including particularly animals other than mice.
Mouse tissue and plasma samples were a generous donation to Lipomics Technologies, Inc., from Dr. Edward Leiter of the Jackson Laboratory (Bar Harbor, Me.). Samples included the plasma, heart, liver and inguinal adipose of mice treated with pharmaceuticals or their corresponding controls.
In trial 2, male, inbred NON mice were fed a control with or without the presence of the β-3 adrenergic agonist CL316,243 for four weeks (at 0.001% CL316,243 by weight in the dietary chow).
In both studies, five treated and five control mice were used. Following the treatments and the killing of the mice, tissues and plasma were taken, chilled to −80 ° C. and shipped to the analysis laboratory at Lipomics Technologies in a frozen state.
Tissue processing and lipid extraction, including provision of internal standards, was carried out essentially as described in Watkins et al. (J. Lipid Res. Papers in Press, 10.1184/jlf.M200169-JLF200, published August 16, 2002), and in co-owned international application PCT/US02/21426, entitled “GENERATING, VIEWING, INTERPRETING, AND UTILIZING A QUANTITATIVE DATABASE OF METABOLITES,” both of which are incorporated in their entirety herein by reference.
The separation of lipid classes was performed in some instance by preparative thin-layer chromatography (TLC). To remove any residual metal or other damaging contaminants on the TLC plates, each plate was washed prior to use. Washing the plates is a three-step process that involves impregnating each plate with ethylenediamine tetraacetic acid (EDTA) and rinsing the plates once with methanol and once with chloroform. Each plate is first impregnated with 1 mM EDTA, pH 5.5, by ascending development using the method of Ruiz (J. Lipid Res. 38, 1482-1489, 1997). After each plate was completely developed, it was dried in air overnight. Once dry, each plate was developed in methanol, dried, and developed in chloroform in the same direction as the development with EDTA. The washed plates were then dried in air. Just prior to use, each plate was activated by heating to 110° C. for 10 minutes.
To prepare the TLC chamber for chromatography, Whatman (Clifton, N.J.) filter paper was cut into 20×80-cm strips and wrapped around the inside wall of a 30×60×10-cm glass development chamber. One hundred milliliters of the appropriate mobile phase was added to the chamber, and the chambers were sealed and allowed to equilibrate. Chambers were considered equilibrated when the solvent front had completely ascended the filter paper. The mobile phase employed for the separation of phospholipid classes (lyso-phospholipids, sphingomyelin, phosphatidylcholine, phosphatidylserine, phosphatidylethanolamine and cardiolipin) was a modification of the solvent system described by Holub and Skeaf (“Nutritional regulation of cellular phosphatidylinositol,” in Methods in Enzymology, ed. Conn, P. M. (Academic Press, Inc., Orlando), pp. 234-243, 1987) consisting of chloroform/methanol/acetic acid/water (100:67:7:4, by volume).
For the separation of neutral lipid classes (free fatty acids, free sterols, triacylglycerides and cholesterol esters), a solvent system consisting of petroleum ether/diethyl ether/acetic acid (80:20:1, by volume) was used (Mangold, Thin Layer Chromatography—A Laboratory Handbook (Springer-Verlag, New York), 1969).
After the TLC plate was activated, the sample extracts were spotted onto the activated plate. As a general rule, samples were spotted at an estimated concentration such that no single lipid class was present at more than 25 jig per centimeter of plate width following chromatography. This ensured that the plate was not overloaded and minimized the risk of cross-contamination between lipid classes (cross-contamination is readily identified during sample analysis as each lipid class contains unique internal standards). […]

C[C@H](Cc1ccc2c(c1)OC(C(=O)[O-])(C(=O)[O-])O2)NC[C@H](O)c1cccc(Cl)c1.[Na+].[Na+] [CL316,243]
Total nMole of FA (FFA): 9555.8 nanomoles per gram
14:0 (PC): 69.0 nanomoles per gram
16:0 (PC): 11221.7 nanomoles per gram
16:1n7 (PC): 358.8 nanomoles per gram
18:0 (PC): 5889.5 nanomoles per gram
18:1n7 (PC): 741.3 nanomoles per gram
18:1n9 (PC): 3855.0 nanomoles per gram
Saturates (PC): 17292.7 nanomoles per gram
Total n7 (PC): 1100.1 nanomoles per gram
Total n9 (PC): 3964.0 nanomoles per gram
Total nMole of FA (PC): 19052.2 nanomoles per gram
14:0 (PE): 13.1 nanomoles per gram
16:0 (PE): 4406.0 nanomoles per gram
16:1n7 (PE): 117.9 nanomoles per gram
18:0 (PE): 3777.4 nanomoles per gram
18:1n7 (PE): 247.4 nanomoles per gram
18:1n9 (PE): 1320.6 nanomoles per gram
Saturates (PE): 8245.4 nanomoles per gram
Total n7 (PE): 365.3 nanomoles per gram
Total n9 (PE): 1376.1 nanomoles per gram
Total nMole of FA (PE): 9924.9 nanomoles per gram
14:0 (PL): 91.0 nanomoles per gram
16:0 (PL): 16120.7 nanomoles per gram
16:1n7 (PL): 586.5 nanomoles per gram
18:0 (PL): 12438.5 nanomoles per gram
18:1n7 (PL): 1242.7 nanomoles per gram
18:1n9 (PL): 5839.1 nanomoles per gram
Saturates (PL): 29247.6 nanomoles per gram
Total n7 (PL): 1829.2 nanomoles per gram
Total n9 (PL): 6261.0 nanomoles per gram
Total nMole of FA (PL): 34731.4 nanomoles per gram
14:0 (PS/I): 19.9 nanomoles per gram
16:0 (PS/I): 898.1 nanomoles per gram
16:1n7 (PS/I): 37.8 nanomoles per gram
18:0 (PS/I): 4313.9 nanomoles per gram
18:1n7 (PS/I): 100.2 nanomoles per gram
18:1n9 (PS/I): 486.8 nanomoles per gram
Saturates (PS/I): 5283.6 nanomoles per gram
Total n7 (PS/I): 138.0 nanomoles per gram
Total n9 (PS/I): 607.6 nanomoles per gram
Total nMole of FA (PS/I): 5625.0 nanomoles per gram
14:0 (TAG): 207.9 nanomoles per gram
16:0 (TAG): 6580.5 nanomoles per gram
16:1n7 (TAG): 675.6 nanomoles per gram
18:0 (TAG): 668.7 nanomoles per gram
18:1n7 (TAG): 619.4 nanomoles per gram
18:1n9 (TAG): 7123.9 nanomoles per gram
Saturates (TAG): 7585.2 nanomoles per gram
Total n7 (TAG): 1295.0 nanomoles per gram
Total n9 (TAG): 7280.9 nanomoles per gram
Total nMole of FA (TAG): 6910.6 nanomoles per gram
14:0 (lipid class CE): 2.5 percentage of total fatty acids
16:0 (lipid class CE): 27.3 percentage of total fatty acids
16:1n7 (lipid class CE): 4.9 percentage of total fatty acids
18:0 (lipid class CE): 7.1 percentage of total fatty acids
18:1n7 (lipid class CE): 1.8 percentage of total fatty acids
18:1n9 (lipid class CE): 25.4 percentage of total fatty acids
Saturates (lipid class CE): 39.0 percentage of total fatty acids
Total (lipid class CE): 100.0 percentage of total fatty acids
Total n7 (lipid class CE): 6.7 percentage of total fatty acids
Total n9 (lipid class CE): 26.9 percentage of total fatty acids
14:0 (lipid class CL): 0.4 percentage of total fatty acids
16:0 (lipid class CL): 4.9 percentage of total fatty acids
16:1n7 (lipid class CL): 1.5 percentage of total fatty acids
18:0 (lipid class CL): 4.7 percentage of total fatty acids
18:1n7 (lipid class CL): 4.4 percentage of total fatty acids
18:1n9 (lipid class CL): 8.7 percentage of total fatty acids
Saturates (lipid class CL): 10.4 percentage of total fatty acids
Total (lipid class CL): 25.0 percentage of total fatty acids
Total n7 (lipid class CL): 5.9 percentage of total fatty acids
Total n9 (lipid class CL): 9.4 percentage of total fatty acids
14:0 (lipid class FFA): 1.6 percentage of total fatty acids
16:0 (lipid class FFA): 24.0 percentage of total fatty acids
16:1n7 (lipid class FFA): 3.9 percentage of total fatty acids
18:0 (lipid class FFA): 4.9 percentage of total fatty acids
18:1n7 (lipid class FFA): 2.8 percentage of total fatty acids
18:1n9 (lipid class FFA): 23.7 percentage of total fatty acids
Saturates (lipid class FFA): 31.2 percentage of total fatty acids
Total (lipid class FFA): 100.0 percentage of total fatty acids
Total n7 (lipid class FFA): 6.7 percentage of total fatty acids
Total n9 (lipid class FFA): 24.2 percentage of total fatty acids
14:0 (lipid class PC): 0.2 percentage of total fatty acids
16:0 (lipid class PC): 29.4 percentage of total fatty acids
16:1n7 (lipid class PC): 0.9 percentage of total fatty acids
18:0 (lipid class PC): 15.5 percentage of total fatty acids
18:1n7 (lipid class PC): 1.9 percentage of total fatty acids
18:1n9 (lipid class PC): 10.1 percentage of total fatty acids
Saturates (lipid class PC): 45.4 percentage of total fatty acids
Total (lipid class PC): 50.0 percentage of total fatty acids
Total n7 (lipid class PC): 2.9 percentage of total fatty acids
Total n9 (lipid class PC): 10.4 percentage of total fatty acids
14:0 (lipid class PE): 0.1 percentage of total fatty acids
16:0 (lipid class PE): 22.2 percentage of total fatty acids
16:1n7 (lipid class PE): 0.6 percentage of total fatty acids
18:0 (lipid class PE): 19.1 percentage of total fatty acids
18:1n7 (lipid class PE): 1.2 percentage of total fatty acids
18:1n9 (lipid class PE): 6.6 percentage of total fatty acids
Saturates (lipid class PE): 41.5 percentage of total fatty acids
Total (lipid class PE): 50.0 percentage of total fatty acids
Total n7 (lipid class PE): 1.8 percentage of total fatty acids
Total n9 (lipid class PE): 6.9 percentage of total fatty acids
14:0 (lipid class PL): 0.1 percentage of total fatty acids
16:0 (lipid class PL): 23.2 percentage of total fatty acids
16:1n7 (lipid class PL): 0.8 percentage of total fatty acids
18:0 (lipid class PL): 17.9 percentage of total fatty acids
18:1n7 (lipid class PL): 1.8 percentage of total fatty acids
18:1n9 (lipid class PL): 8.4 percentage of total fatty acids
Saturates (lipid class PL): 42.1 percentage of total fatty acids
Total (lipid class PL): 50.0 percentage of total fatty acids
Total n7 (lipid class PL): 2.6 percentage of total fatty acids
Total n9 (lipid class PL): 9.0 percentage of total fatty acids
14:0 (lipid class PS/I): 0.2 percentage of total fatty acids
16:0 (lipid class PS/I): 8.0 percentage of total fatty acids
16:1n7 (lipid class PS/I): 0.3 percentage of total fatty acids
18:0 (lipid class PS/I): 38.4 percentage of total fatty acids
18:1n7 (lipid class PS/I): 0.9 percentage of total fatty acids
18:1n9 (lipid class PS/I): 4.3 percentage of total fatty acids
Saturates (lipid class PS/I): 47.0 percentage of total fatty acids
Total (lipid class PS/I): 50.0 percentage of total fatty acids
Total n7 (lipid class PS/I): 1.2 percentage of total fatty acids
